Assay results taken from PubChem BioAssay AID1919010 (Molecular Pharmacology Branch, DTP, NCI, 2023).

Tested on: Hs578T complex spheroid growth, percent test/control
Experiment: Anticancer human tumor Hs578T cell line growth inhibition [AhR];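 further: luminescent viability signal as a proxy for spheroid growth; spheroids exposed to agents for one week after three days of growth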
Conditions: for IC50: curve of first compound; for viability, T/C: stronger effect = lower value
Source text: Multicellular complex tumor spheroid response to aryl hydrocarbon receptor antagonists in combination with a variety of drugs and investigational agents in selected tumor cell lines
The current study was undertaken to assess response to aryl hydrocarbon receptor antagonists in combination with standard-of-care drugs and investigational agents in solid tumor complex spheroid models. Complex spheroids include a stromal component modeled by human endothelial cells (HUVEC) and fibroblasts modeled by human mesenchymal stem cells (MSCs). The concentration ranges selected for each drug and investigational agent were based upon clinically achievable concentrations if the clinical Cmax of the agent was known.
Compounds. The drugs and investigational agents: BAY 2416964 (NSC825713), GNF351 (NSC835774), CH-223191 (NSC835775), CPI-455 (NSC825282), aza-TdCyd (NSC777586), decitabine (NSC127716), belinostat (NSC758774), entinostat (NSC756642), pevonedistat (NSC761192), tazemetostat (NSC777109), talazoparib (NSC765396), olaparib (NSC753686), selinexor (NSC780203), nedisertib (M3814, NSC802822), bortezomib (NSC756655), venetoclax (NSC766270), doxorubicin (NSC123127), elimusertib (BAY189344, NSC800525), ceralasertib (AZD6738, NSC777638), TAK-243 (NSC785004), alisertib (NSC759677), etoposide (NSC141540), topotecan (NSC609699), eribulin (NSC707389), gemcitabine (NSC613327), carboplatin (NSC241240), cisplatin (NSC119875), and SN-38 (NSC673596) were obtained from the National Cancer Institute (NCI) Developmental Therapeutics Program Chemical Repository (32). The FDA-approved anticancer drug set is available from the Developmental Therapeutics Program at https://dtp.cancer.gov/organization/dscb/obtaining/available plates.htm. […] The stock solutions were prepared in dimethyl sulfoxide (DMSO, Sigma-Aldrich, St. Louis, MO, cat. D2650), except for the platinum compounds which were prepared in saline (Quality Biological, Gaithersburg, MD, cat. 114-055-101), at 800-fold the tested concentration and stored at -70 degrees C prior to their use. All drugs and investigational agents were tested over a range starting from a high concentration at or near the clinical Cmax and decreasing in half-log increments. If the clinical Cmax for an agent had not been determined, the highest concentration tested was 10 microM (Table 1).
Cell Culture. All cells were maintained in an incubator at 37 degrees C and 5% CO2 with 95% humidity. The PDC lines were cultured according to standard operating procedures established by the NCI PDMR (https://pdmr.cancer.gov). Briefly, all PDCs were thawed and cultured in Matrigel-coated flasks prepared with a working solution of 1X Ham's F-12 nutrient mix, without supplementation (Invitrogen, Waltham, MA, cat. 11765054), 100 U/mL penicillin-streptomycin (Invitrogen, cat. 15140122), and 2.5% Matrigel (Corning Inc., Corning, NY, cat. 354248) for the first three passages. All PDCs were cultured in complete DMEM/F-12 media containing advanced DMEM/F-12 (Invitrogen, cat. 12634028), 4.9% defined fetal bovine serum, heat inactivated (HyClone Laboratories Inc., Logan, UT, cat. SH30070.03HI), 389 ng/mL hydrocortisone (Sigma-Aldrich, cat. H4001), 9.7 ng/mL human EGF recombinant protein (Invitrogen, cat. PHG0313), 23.4 microg/mL adenine (Sigma-Aldrich, cat. A2786), 97.3 U/mL penicillin-streptomycin (Invitrogen, cat. 15140122), 1.9 mM L-glutamine (Invitrogen, cat. 25030081), and 9.7 microM Y-27632 dihydrochloride (Tocris Bioscience, Bristol, United Kingdom, cat. 1254). The PDCs were cultured in complete DMEM/F12 media without 10 microM Y-27632 dihydrochloride for at least two passages prior to the screen. The established cell lines NCI-H1341 and […] were cultured in DMEM/F-12, HEPES (Invitrogen, cat. 11330032), 5% defined fetal bovine serum (HyClone Laboratories Inc., cat. SH30070.03), ITS premix universal culture supplement [insulin (5 microg/mL), transferrin (5 microg/mL), and selenious acid (5 ng/mL)] […]

O=C(C=Cn1cnc(-c2cc(C(F)(F)F)cc(C(F)(F)F)c2)n1)NNc1cnccn1 + Cc1cncc(-c2nc(NCCc3c[nH]c4ccccc34)c3ncn(C(C)C)c3n2)c1
IC50 (second compound 0.1 µM): 402 nM | IC50 (second compound 0.316 µM): 352 nM | IC50 (second compound 1 µM): 346 nM | IC50 (second compound 3.16 µM): 148 nM | IC50 (second compound 10 µM): < 9.49 nM | viability, T/C (second compound 0.1 µM, first compound 0.00949 µM): 113% | viability, T/C (second compound 0.1 µM, first compound 0.03 µM): 100% | viability, T/C (second compound 0.1 µM, first compound 0.0949 µM): 93.7% | viability, T/C (second compound 0.1 µM, first compound 0.3 µM): 61.6% | viability, T/C (second compound 0.1 µM, first compound 0.949 µM): 19.2% | viability, T/C (second compound 0.1 µM, first compound 3 µM): 19.4% | viability, T/C (second compound 0.316 µM, first compound 0.00949 µM): 110% | viability, T/C (second compound 0.316 µM, first compound 0.03 µM): 110% | viability, T/C (second compound 0.316 µM, first compound 0.0949 µM): 96.4% | viability, T/C (second compound 0.316 µM, first compound 0.3 µM): 55% | viability, T/C (second compound 0.316 µM, first compound 0.949 µM): 21.9% | viability, T/C (second compound 0.316 µM, first compound 3 µM): 19.1% | viability, T/C (second compound 1 µM, first compound 0.00949 µM): 101% | viability, T/C (second compound 1 µM, first compound 0.03 µM): 103% | viability, T/C (second compound 1 µM, first compound 0.0949 µM): 93.2% | viability, T/C (second compound 1 µM, first compound 0.3 µM): 55.3% | viability, T/C (second compound 1 µM, first compound 0.949 µM): 17.2% | viability, T/C (second compound 1 µM, first compound 3 µM): 19.2% | viability, T/C (second compound 3.16 µM, first compound 0.00949 µM): 84.6% | viability, T/C (second compound 3.16 µM, first compound 0.03 µM): 71.6% | viability, T/C (second compound 3.16 µM, first compound 0.0949 µM): 59.4% | viability, T/C (second compound 3.16 µM, first compound 0.3 µM): 39% | viability, T/C (second compound 3.16 µM, first compound 0.949 µM): 16% | viability, T/C (second compound 3.16 µM, first compound 3 µM): 14.6% | viability, T/C (second compound 10 µM, first compound 0.00949 µM): 6.63% | viability, T/C (second compound 10 µM, first compound 0.03 µM): 4.78% | viability, T/C (second compound 10 µM, first compound 0.0949 µM): 2.83% | viability, T/C (second compound 10 µM, first compound 0.3 µM): 1.17% | viability, T/C (second compound 10 µM, first compound 0.949 µM): 1.46% | viability, T/C (second compound 10 µM, first compound 3 µM): 1.56%
